How the values were obtained:
tumor cell lines = experiment: Tumor clonogenic assay, overall; format: cell-based
From the text: For the IN VITRO test, we chose a tumor clonogenic assay which measures the ability of tumoral cells to form colonies (multicellular growth units) as a result of cell division in semisolid agar support (2,3). A more elaborate version of this fundamental assay, the soft agar colony formation disk diffusion assay was used. This assay defines the relative activity of one particular drug versus a tumoral cell line type. The effect of the test drug against tumoral cells could be measured by its inhibitory capacity against colony formation after the delivery of the compound, in different concentrations on an filter disk(4).
A modified technique of this assay was used in order to investigate the antiproliferative activity of candidate compounds. Tumoral cells from solid tumors and ascitic lines were plated separately in a two layer agar matrix. Cell lines to be tested were suspended in an upper layer of 0.4% Noble agar (Difco#00142-01) in RPMI-1066 (Gibco#3201875) at a yield varying between 10^4 to 2×10^5 cells per 60 mm Petri dish. Plating efficiency was determined for each line in order to achieve an optimal number of colonies per dish. Plates were examined before drug administration to confirm a uniform dispersion of single cells. The bottom layer consisted of 0.8% Noble agar, 0.8% Tryptic Soy Broth (difco#0037001)in CMRL-1066/Fischer's. The bottom layers were used within 2 and 9 days of preparation. Plated dishes (bottom layer of agar, upper layer of cells and administered drug were incubated in humidified atmosphere at 37° C., 5% CO2 for 10-20 days depending upon the time necessary to observe adequate colonies (defined as a cell aggregate of more than 50 cells) both control and drug inhibited. Drugs were administered on a paper filter disk (Whatman No. 1) of 6.5 mm diameter placed on the upper layer at 1/3 distance from the edge of the dish. The anti-clonogenic activity of the compounds was measured as the zone of inhibition from the disk edge to the most proximal colonies. This zone of inhibition was checked on an inverted microscope (40×) and was measured with a micrometer mounted in the eyepiece. The ocular micrometer was calibrated with a stage micrometer set for a particular combination of ocular and objective lenses.
200 units of activity are equivalent to 6.5 mm distance from the disk edge to the first colonies (5). […] We made a modification of the initial technique by not plating a solid tumor and a leukemia simultaneously in the same Petri dish. Anti-clonogenic tests performed on leukemia cell line have helped in the discovery of the majority of current clinically used cytostatic drugs. Our tests on solid tumor lines (animal or human) may help define active compounds with solid tumor specificity. This specific activity would be indicated by a higher level of cloning inhibition in solid tumors versus leukemias (6).

MCF7/ADR = experiment: Soft agar colony formation disk diffusion assay; format: cell-based, human
From the text: (§1) A more elaborate version of this fundamental assay, the soft agar colony formation disk diffusion assay was used. This assay defines the relative activity of one particular drug versus a tumoral cell line type. The effect of the test drug against tumoral cells could be measured by its inhibitory capacity against colony formation after the delivery of the compound, in different concentrations on an filter disk(4). A modified technique of this assay was used in order to investigate the antiproliferative activity of candidate compounds. Tumoral cells from solid tumors and ascitic lines were plated separately in a two layer agar matrix. Cell lines to be tested were suspended in an upper layer of 0.4% Noble agar (Difco#00142-01) in RPMI-1066 (Gibco#3201875) at a yield varying between 10^4 to 2×10^5 cells per 60 mm Petri dish. Plating efficiency was determined for each line in order to achieve an optimal number of colonies per dish. Plates were examined before drug administration to confirm a uniform dispersion of single cells. The bottom layer consisted of 0.8% Noble agar, 0.8% Tryptic Soy Broth (difco#0037001)in CMRL-1066/Fischer's. The bottom layers were used within 2 and 9 days of preparation. Plated dishes (bottom layer of agar, upper layer of cells and administered drug were incubated in humidified atmosphere at 37° C., 5% CO2 for 10-20 days depending upon the time necessary to observe adequate colonies (defined as a cell aggregate of more than 50 cells) both control and drug inhibited. Drugs were administered on a paper filter disk (Whatman No. 1) of 6.5 mm diameter placed on the upper layer at 1/3 distance from the edge of the dish. The anti-clonogenic activity of the compounds was measured as the zone of inhibition from the disk edge to the most proximal colonies. This zone of inhibition was checked on an inverted microscope (40×) and was measured with a micrometer mounted in the eyepiece. The ocular micrometer was calibrated with a stage micrometer set for a particular combination of ocular and objective lenses. […] We made a modification of the initial technique by not plating a solid tumor and a leukemia simultaneously in the same Petri dish. Anti-clonogenic tests performed on leukemia cell line have helped in the discovery of the majority of current clinically used cytostatic drugs. Our tests on solid tumor lines (animal or human) may help define active compounds with solid tumor specificity. […] HUMAN TUMORS. […] LS180 (13) and BE1(14) were obtained from the Oncology Dept. of the Montreal General Hospital. […] Cell lines were routinely passaged twice a week by trypsinization and maintained in 25, or 75-sq. cm Falcon Plastic flasks at 37° C., 5% CO2 in humidified atmosphere. Both compounds were dissolved in DMSO (1 mg/100 ul) and brought to final volume (250 ul) with Millipore deionized sterile water. Further dilutions were made with […] volume of 25 ul of freshly prepared solution was placed on the filter disk and allowed to dry.

MCF7 = experiment: Soft agar colony formation disk diffusion assay; format: cell-based, human
From the text: as §1

M5076 = experiment: Soft agar colony formation disk diffusion assay; format: cell-based, murine
From the text: (§2) A more elaborate version of this fundamental assay, the soft agar colony formation disk diffusion assay was used. This assay defines the relative activity of one particular drug versus a tumoral cell line type. The effect of the test drug against tumoral cells could be measured by its inhibitory capacity against colony formation after the delivery of the compound, in different concentrations on an filter disk(4). A modified technique of this assay was used in order to investigate the antiproliferative activity of candidate compounds. Tumoral cells from solid tumors and ascitic lines were plated separately in a two layer agar matrix. Cell lines to be tested were suspended in an upper layer of 0.4% Noble agar (Difco#00142-01) in RPMI-1066 (Gibco#3201875) at a yield varying between 10^4 to 2×10^5 cells per 60 mm Petri dish. Plating efficiency was determined for each line in order to achieve an optimal number of colonies per dish. Plates were examined before drug administration to confirm a uniform dispersion of single cells. The bottom layer consisted of 0.8% Noble agar, 0.8% Tryptic Soy Broth (difco#0037001)in CMRL-1066/Fischer's. The bottom layers were used within 2 and 9 days of preparation. Plated dishes (bottom layer of agar, upper layer of cells and administered drug were incubated in humidified atmosphere at 37° C., 5% CO2 for 10-20 days depending upon the time necessary to observe adequate colonies (defined as a cell aggregate of more than 50 cells) both control and drug inhibited. Drugs were administered on a paper filter disk (Whatman No. 1) of 6.5 mm diameter placed on the upper layer at 1/3 distance from the edge of the dish. The anti-clonogenic activity of the compounds was measured as the zone of inhibition from the disk edge to the most proximal colonies. This zone of inhibition was checked on an inverted microscope (40×) and was measured with a micrometer mounted in the eyepiece. The ocular micrometer was calibrated with a stage micrometer set for a particular combination of ocular and objective lenses. […] We made a modification of the initial technique by not plating a solid tumor and a leukemia simultaneously in the same Petri dish. Anti-clonogenic tests performed on leukemia cell line have helped in the discovery of the majority of current clinically used cytostatic drugs. Our tests on solid tumor lines (animal or human) may help define active compounds with solid tumor specificity. […] Murine tumors were maintained IN VIVO in order to diminish the selection of subpopulations of cells normally present in the heterogenous IN VIVO tumor. The actual drug sensitivity assay was done IN VITRO. For these experiments cells from freshly excised tumors or from ascitic fluids were maintained in RPMI-1066. Both compounds were dissolved in DMSO (1 mg/100 ul) and brought to final volume (250 ul) with Millipore deionized sterile water. Further dilutions were made with […] volume of 25 ul of freshly prepared solution was placed on the filter disk and allowed to dry.

P388 = experiment: Soft agar colony formation disk diffusion assay; format: cell-based, murine
From the text: as §2

B16 = experiment: Soft agar colony formation disk diffusion assay; format: cell-based, murine
From the text: as §2

P388/ADR = experiment: Soft agar colony formation disk diffusion assay; format: cell-based, murine
From the text: as §2

MATB/ADR = experiment: Soft agar colony formation disk diffusion assay; format: cell-based, rat
From the text: as §2

MATB.WT = experiment: Soft agar colony formation disk diffusion assay; format: cell-based, rat
From the text: as §2

HT29 = experiment: Soft agar colony formation disk diffusion assay; format: cell-based, human
From the text: as §1, with “This assay defines the relative activity of one particular drug versus a tumoral cell line type.” left out, “Plates were examined before drug administration to confirm a uniform dispersion of single cells.” left out, “dish.” for “dish. Anti-clonogenic tests performed on leukemia cell line have helped in the discovery of the majority of current clinically used cytostatic drugs. Our tests on solid tumor lines (animal or human) may help define active compounds with solid tumor specificity.”

LS180 = experiment: Soft agar colony formation disk diffusion assay; format: cell-based, human
From the text: as §1

tumor = settings: cited from earlier work

Structure (SMILES)	zone of inhibition (MCF7/ADR; 10 μg/DISK) [Zone Units]	zone of inhibition (MCF7/ADR; 100 μg/DISK) [Zone Units]	zone of inhibition (MCF7; 10 μg/DISK) [Zone Units]	zone of inhibition (MCF7; 100 μg/DISK) [Zone Units]	zone of inhibition (M5076; 10 μg/DISK) [Zone Units]	zone of inhibition (M5076; 100 μg/DISK) [Zone Units]	zone of inhibition (P388; 10 μg/DISK) [Zone Units]	zone of inhibition (P388; 100 μg/DISK) [Zone Units]	zone of inhibition (B16; 10 μg/DISK) [Zone Units]	zone of inhibition (B16; 100 μg/DISK) [Zone Units]	zone of inhibition (P388/ADR; 10 μg/DISK) [Zone Units]	zone of inhibition (P388/ADR; 100 μg/DISK) [Zone Units]	zone of inhibition (MATB/ADR; 10 μg/DISK) [Zone Units]	zone of inhibition (MATB/ADR; 100 μg/DISK) [Zone Units]	zone of inhibition (MATB.WT; 10 μg/DISK) [Zone Units]	zone of inhibition (MATB.WT; 100 μg/DISK) [Zone Units]	zone of inhibition (HT29; 10 μg/DISK) [Zone Units]	zone of inhibition (HT29; 100 μg/DISK) [Zone Units]	zone of inhibition (LS180; 10 μg/DISK) [Zone Units]	zone of inhibition (LS180; 100 μg/DISK) [Zone Units]	other results
COC(=O)[C@H]1CC2=C(C(=O)c3cc4ccccc4c(O)c3C2=O)[C@H](O[C@H]2C[C@H](NC(=O)C(F)(F)F)[C@H](O)[C@H](C)O2)O1 [BCH-706]	91.5 ± 8.6	183.0	103.7 ± 25.5	213.5 ± 43.1	–	–	–	–	–	–	–	–	–	–	–	–	–	–	–	–	activity and specificity in words (tumor cell lines): most active; cross resistance with adriamycin, MCF7/ADR vs MCF7 (MCF7/ADR): lack of cross resistance with adriamycin
CCOC(=O)C1Cc2c(O)c3c(c(O)c2CS1)C(=O)c1ccccc1C3=O (centres unmarked) [BCH-713, 3-carbethoxy-5,12-dihydroxy-1,2,3,4-tetrahydro-(2-sulfur)naphthacene-6,11-dione]	24.0 ± 8.6	94.5 ± 64.7	0	0	0	42.7 ± 8.6	0	45.7 ± 21.5	0	24.4 ± 8.6	0	61.0 ± 0.0	0	0	0	27.4 ± 4.3	0	0	0	45.7 ± 21.5	–
COCOCC(=O)C1CC2=C(CO1)C(=O)c1c(cc3ccccc3c1O)C2=O (centres unmarked) [BCH-714, 3-(2-methoxymethoxy)aceto-11-hydroxy-1,2,3,4-tetrahydro-(2-oxygen)-napthacene-5,12-dione]	0	0	0	0	15.5 ± 5.0	55.0 ± 8.4	0	27.0 ± 4.2	0	0	0	0	0	0	0	0	0	0	9.0 ± 4.2	42.0 ± 26.0	–
CC1OC2CC(=O)OC2C2=C1C(=O)c1c(O)c3c(c(O)c1C2=O)C1CC(O)C3(O)C(C)O1 (centres unmarked) [Granaticin]	–	–	–	–	–	–	–	–	–	–	–	–	–	–	–	–	–	–	–	–	antitumor activity (tumor): antitumor activity
